{
  "source": "the supplement of paper PMC10307832",
  "experiment_in_all_cases": "relative viability (nuclei count vs DMSO), 5 days (fraction); higher = more cells survive",
  "key": {"[1]": {"compound": "CCn1c(-c2nonc2N)nc2cnc(Oc3cccc(NC(=O)c4ccc(OCCN5CCOCC5)cc4)c3)cc21 + CS(=O)(=O)N1CCN(Cc2cc3nc(-c4cccc5[nH]ncc45)nc(N4CCOCC4)c3s2)CC1 [Pictilisib] (partner 1 µM)", "summary_of_the_method": "(§1)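 The day after seeding in 1536-well plates, lung cancer cell lines were treated by pin tool with a single drug, or with a fixed anchor-drug dose together with five library-drug doses (not always all listed) in √10 steps. After 5 days, a combined fix-and-stain solution (final 0.05% Triton X-100, 1% formaldehyde, 1 ug/ml Hoechst) was added. Nuclei counted on 4× images gave relative viability as treated counts over vehicle counts, reported as the median of duplicate plates.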"}, "[2]": {"compound": "CCn1c(-c2nonc2N)nc2cnc(Oc3cccc(NC(=O)c4ccc(OCCN5CCOCC5)cc4)c3)cc21 + CC1(C)CCC(c2ccc(Cl)cc2)=C(CN2CCN(c3ccc(C(=O)NS(=O)(=O)c4ccc(N[C@H](CCN5CCOCC5)CSc5ccccc5)c(S(=O)(=O)C(F)(F)F)c4)cc3)CC2)C1 [Navitoclax] (partner 0.5 µM)", "summary_of_the_method": "as §1"}, "Mirin + Palbociclib": {"compound": "N=C1NC(=O)/C(=C/c2ccc(O)cc2)S1 [Mirin] + CC(=O)c1c(C)c2cnc(Nc3ccc(N4CCNCC4)cn3)nc2n(C2CCCC2)c1=O [Palbociclib] (partner 0.5 µM)", "summary_of_the_method": "as §1"}, "Mirin + Linsitinib": {"compound": "N=C1NC(=O)/C(=C/c2ccc(O)cc2)S1 [Mirin] + C[C@]1(O)C[C@@H](c2nc(-c3ccc4ccc(-c5ccccc5)nc4c3)c3c(N)nccn32)C1 [Linsitinib] (partner 1 µM)", "summary_of_the_method": "as §1"}},
  "data": [
    {"cell line": "UMC-11", "values": [
      {"measurement": "relative viability", "setting": "[1]; first compound 0.04 µM", "value": 0.908},
      {"measurement": "relative viability", "setting": "[1]; first compound 0.1265 µM", "value": 0.751},
      {"measurement": "relative viability", "setting": "[1]; first compound 0.4 µM", "value": 0.464},
      {"measurement": "relative viability", "setting": "[1]; first compound 1.265 µM", "value": 0.241},
      {"measurement": "relative viability", "setting": "[1]; first compound 4 µM", "value": 0.188},
      {"measurement": "relative viability", "setting": "[2]; first compound 0.04 µM", "value": 0.349},
      {"measurement": "relative viability", "setting": "[2]; first compound 0.1265 µM", "value": 0.314},
      {"measurement": "relative viability", "setting": "[2]; first compound 0.4 µM", "value": 0.313},
      {"measurement": "relative viability", "setting": "[2]; first compound 1.265 µM", "value": 0.151},
      {"measurement": "relative viability", "setting": "[2]; first compound 4 µM", "value": 0.144},
      {"measurement": "relative viability", "setting": "Mirin + Palbociclib; first compound 0.25 µM", "value": 0.33},
      {"measurement": "relative viability", "setting": "Mirin + Palbociclib; first compound 2.5 µM", "value": 0.317},
      {"measurement": "relative viability", "setting": "Mirin + Palbociclib; first compound 7.906 µM", "value": 0.331},
      {"measurement": "relative viability", "setting": "Mirin + Palbociclib; first compound 25 µM", "value": 0.309},
      {"measurement": "relative viability", "setting": "Mirin + Linsitinib; first compound 0.25 µM", "value": 1},
      {"measurement": "relative viability", "setting": "Mirin + Linsitinib; first compound 0.7906 µM", "value": 0.963},
      {"measurement": "relative viability", "setting": "Mirin + Linsitinib; first compound 2.5 µM", "value": 1.07},
      {"measurement": "relative viability", "setting": "Mirin + Linsitinib; first compound 7.906 µM", "value": 0.803},
      {"measurement": "relative viability", "setting": "Mirin + Linsitinib; first compound 25 µM", "value": 0.66}
    ]}
  ]
}
